The target of the experiment is Genome polyprotein (dengue virus type 2, UniProt P29990). The format is functional, Thailand/16681/1984.

Several values for one entry are separate records, joined by “and”; a condition that tells them apart may be missing. Equal entries are not always repeated.

Genome polyprotein, sequence (P29990 1346-1475 limits assumed): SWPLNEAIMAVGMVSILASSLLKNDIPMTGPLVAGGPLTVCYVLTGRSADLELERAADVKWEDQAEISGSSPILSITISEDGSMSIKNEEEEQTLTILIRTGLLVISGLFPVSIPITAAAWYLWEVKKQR
Genome polyprotein, sequence (P29990 1476-2093 limits assumed): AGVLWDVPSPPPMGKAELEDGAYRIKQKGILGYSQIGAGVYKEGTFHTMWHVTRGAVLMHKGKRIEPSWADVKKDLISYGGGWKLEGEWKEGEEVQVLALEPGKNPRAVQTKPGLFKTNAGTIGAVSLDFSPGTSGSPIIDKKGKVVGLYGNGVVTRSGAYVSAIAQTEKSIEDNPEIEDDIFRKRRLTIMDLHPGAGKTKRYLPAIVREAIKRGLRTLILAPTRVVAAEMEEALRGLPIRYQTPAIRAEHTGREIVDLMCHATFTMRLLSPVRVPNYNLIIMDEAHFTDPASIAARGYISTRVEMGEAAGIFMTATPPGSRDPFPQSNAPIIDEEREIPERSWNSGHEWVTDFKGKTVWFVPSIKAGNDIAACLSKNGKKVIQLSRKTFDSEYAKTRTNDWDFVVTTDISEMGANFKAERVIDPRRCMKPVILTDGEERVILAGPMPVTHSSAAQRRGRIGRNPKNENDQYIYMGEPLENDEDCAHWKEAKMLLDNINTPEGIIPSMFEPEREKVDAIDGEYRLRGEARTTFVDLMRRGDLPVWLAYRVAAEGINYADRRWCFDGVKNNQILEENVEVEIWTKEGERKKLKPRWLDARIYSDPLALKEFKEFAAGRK

What is called IC50 is the concentration that gives 50% inhibition. High values mean a need for much substance, low ones inhibition by little substance. Take `c1ccc(COc2cccc3[nH]cc(CN4CCC(c5cscn5)CC4)c23)cc1`: the IC50 was greater than 99.5 µM.
The same measure for `NCc1cccc(NC(=O)[C@@H](NC(=O)OCc2ccccc2)c2cccc(OC[C@H]3CCCO3)c2)c1`: greater than 99.5 µM; for `c1ccc2c(CNCc3ccc(-c4cscn4)cc3)c[nH]c2c1`: greater than 99.5 µM.
Take `Cn1cc(N2CCN(Cc3c[nH]c4ccccc34)CC2)cn1`: the IC50 was greater than 99.5 µM.
In the case of `O=C(c1cccnc1)N1CCN(Cc2c[nH]c3ccccc23)CC1` it was greater than 99.5 µM.
The same measure for `COc1ccc(F)cc1-c1ccc(S(=O)(=O)Nc2ccc(Cl)cc2C(N)=O)cc1`: 28.4 µM; for `O=c1[nH]c2cccc(N3CCN(Cc4c[nH]c5ccccc45)CC3)c2[nH]1`: greater than 99.5 µM.
The same measure for `CC(=O)N[C@H](C(=O)N[C@H]1C(=O)O[C@H]1C)c1ccc(OCc2ccccc2)cc1`: greater than 99.5 µM.
For `O=C(Nc1cc(Cl)cc(C(=O)Nc2ncc3n2CCNC3)c1)OCc1ccccc1`, the 50% inhibitory concentration (IC50) was greater than 99.5 µM.
The same measure for `NCc1cccc(NC(=O)[C@@H]2[C@@H]3CCCCC[C@@H]3[C@@H]2NC(=O)OCc2ccccc2)c1`: 22.2 µM.
`NC(=O)c1cnccc1N1CCN(Cc2c[nH]c3ccccc23)CC1` came in with an IC50 greater than 99.5 µM.
In the case of `c1ccc(OC2CCN(Cc3c[nH]c4ccccc34)CC2)cc1` it was greater than 99.5 µM; in that of `NCc1cccc(NC(=O)[C@@H](NC(=O)OCc2ccccc2)c2cccc(OCC3CCC3)c2)c1`, 44 µM.
On to `CN(C)Cc1nnc(NC(=O)[C@@H](NC(=O)OCc2ccccc2)c2ccc(OCc3ccccc3)cc2)s1`, for which the IC50 is greater than 99.5 µM.
Compound `NCc1cccc(S(=O)(=O)Nc2cc(Cl)cc(NC(=O)OCc3ccccc3)c2)c1` gave an IC50 greater than 99.5 µM.
The same measure for `NCc1ccccc1Oc1ccc(S(=O)(=O)Nc2ccc(Cl)cc2C(=O)O)cc1`: greater than 99.5 µM; for `C[C@H]1CC[C@@](Cc2nc3ccccc3[nH]2)(C(=O)Nc2cccc(CN)c2)CC1`: greater than 99.5 µM; for `CN(C)Cc1csc(NC(=O)[C@@H](NC(=O)OCc2ccccc2)c2ccc(OCc3ccccc3)cc2)n1`: greater than 99.5 µM.
In the case of `Cc1nc(COc2ccc([C@@H](NC(=O)OCc3ccccc3)C(=O)Nc3cccc(CN)c3)cc2)cs1` it was greater than 99.5 µM; in that of `c1ccc2c(CN3CCN(c4ccncc4)CC3)c[nH]c2c1`, greater than 99.5 µM.
In the case of `O=S(=O)(c1cccnc1)N1CCN(Cc2c[nH]c3ccccc23)CC1` it was greater than 99.5 µM.
In turn, `Fc1cc(F)c2[nH]cc(CN3CCC(c4cscn4)CC3)c2c1F` showed a 50% inhibitory concentration (IC50) greater than 99.5 µM.
In the case of `O=C(Nc1cc(Cl)cc(C(=O)Nc2nc3c(s2)CCNC3)c1)OCc1ccccc1` it was greater than 99.5 µM; in that of `COc1c(C)cc(C(=O)Nc2cccc(CN)c2)cc1NC(=O)OCc1ccccc1`, greater than 99.5 µM.
The same measure for `NCc1cccc(NC(=O)Cc2cc(Cl)cc(NC(=O)OCc3ccccc3)c2)c1`: 85.8 µM; for `COc1ccc(CN(C)C)cc1NC(=O)[C@@H](NC(=O)OCc1ccccc1)c1ccc(OCc2ccccc2)cc1`: greater than 99.5 µM.
In the case of `Nc1ccc2ccc(B(O)O)cc2c1` it was greater than 99.5 µM; in that of `CC(C)(C)OC(=O)Nc1cccc2[nH]cc(CN3CCC(c4cscn4)CC3)c12`, greater than 99.5 µM; in that of `Cn1nc2c(c1NC(=O)[C@@H](NC(=O)OCc1ccccc1)c1ccc(OCc3ccccc3)cc1)CNC2`, greater than 99.5 µM.
With `Cc1c(NC(=O)OCc2ccccc2)cc(C(F)(F)F)cc1C(=O)Nc1cccc(CN)c1`, the midpoint of inhibition, the IC50, lay at 51.4 µM.
The same measure for `COc1ccc(F)cc1-c1ccc(S(=O)(=O)Nc2cc(Cl)cc(C(=O)O)c2)cc1`: 89.9 µM; for `c1ccc(COc2ccc3[nH]cc(CN4CCC(c5cscn5)CC4)c3c2)cc1`: greater than 99.5 µM.
The same measure for `NC(=O)c1cc(Cl)ccc1NS(=O)(=O)c1ccc(-c2ccc(F)cc2)cc1`: 33.3 µM; for `NCc1cccc(NC(=O)[C@@H](NC(=O)OCc2ccccc2)c2ccc(OC[C@H]3CCCCO3)cc2)c1`: greater than 99.5 µM.
`O=C(Nc1cc(Cl)cc(C(=O)Nc2n[nH]c3c2CNC3)c1)OCc1ccccc1`: it took 27.2 µM to reach half-maximal inhibition (IC50).
The same measure for `Cc1c[nH]nc1CN1CCC(c2cscn2)CC1`: greater than 99.5 µM; for `O=C(Nc1cc(Cl)cc(C(=O)Nc2ncc([C@H]3CCCN3)s2)c1)OCc1ccccc1`: greater than 99.5 µM; for `CC(C)(C)c1ccc2[nH]cc(CN3CCC(c4cscn4)CC3)c2c1`: greater than 99.5 µM.
The same measure for `O=C(Nc1cc(Cl)cc(C(=O)Nc2n[nH]c3c2CNC32CC2)c1)OCc1ccccc1`: 67.8 µM.
In the case of `CN1CCC[C@H]1COc1cccc([C@@H](NC(=O)OCc2ccccc2)C(=O)Nc2cccc(CN)c2)c1` it was greater than 99.5 µM; in that of `CCc1cccc2c(CN3CCC(c4cscn4)CC3)c[nH]c12`, greater than 99.5 µM.
Take `Cc1cc(NC(=O)OCc2ccccc2)cc(C(=O)Nc2cccc(CN)c2)c1C`: the IC50 is greater than 99.5 µM.
On to `COc1cc(Br)ccc1[C@@H](NC(=O)OCc1ccccc1)C(=O)Nc1cccc(CN)c1`, for which the IC50 turned out to be 83.9 µM. This lies in the double-digit micromolar range.
The same measure for `CN(C)Cc1ccc(N2CCN(Cc3c[nH]c4ccccc34)CC2)nc1`: greater than 99.5 µM; for `c1ccc(-c2c[nH]nc2CN2CCC(c3cscn3)CC2)cc1`: greater than 99.5 µM.
In the case of `CC(C)(C)c1cc(CN2CCC(c3cscn3)CC2)n[nH]1` it was greater than 99.5 µM.
In the case of `CN(C)Cc1cc(NC(=O)[C@@H](NC(=O)OCc2ccccc2)c2ccc(OCc3ccccc3)cc2)ccc1Cl` it was greater than 99.5 µM; in that of `CCNC(=O)Nc1cc(Cl)cc(C(=O)Nc2cccc(CN)c2)c1`, greater than 99.5 µM; in that of `Cc1ccc(NC(=O)OC(C)(C)C)c2[nH]cc(CN3CCC(c4cscn4)CC3)c12`, greater than 99.5 µM.
On to `O=C(Nc1cc(Cl)cc(C(=O)Nc2cnc3n2CCNC3)c1)OCc1ccccc1`, for which the 50% inhibitory concentration (IC50) is greater than 99.5 µM.
In the case of `NCc1cccc(NC(=O)[C@@H]2CCC[C@@H](NC(=O)OCc3ccccc3)C2)c1` it was greater than 99.5 µM; in that of `c1ccc(CC2CCN(Cc3c[nH]c4ccccc34)CC2)cc1`, greater than 99.5 µM.
In the case of `O=C1CN(Cc2c[nH]c3ccccc23)CCN1c1cccnc1` it was greater than 99.5 µM.
In the case of `O=C(N[C@@H](C(=O)Nc1n[nH]c2c1CNC21CC1)c1ccc(OCc2ccccc2)cc1)OCc1ccccc1` it was greater than 99.5 µM; in that of `COc1cc2c(CN3CCC(c4cscn4)CC3)c[nH]c2cc1Cl`, greater than 99.5 µM; in that of `Cn1nc(NC(=O)[C@@H](NC(=O)OCc2ccccc2)c2ccc(OCc3ccccc3)cc2)c2c1CNC2`, greater than 99.5 µM.
The compound `c1cncc(N2CCCN(Cc3c[nH]c4ccccc34)CC2)c1` yielded an IC50 greater than 99.5 µM.
The same measure for `O=C(Nc1cc(Cl)cc(C(=O)Nc2cc3n(n2)CCNC3)c1)OCc1ccccc1`: greater than 99.5 µM.
Turning to `Clc1cc(Cl)c2c(CN3CCC(c4cscn4)CC3)c[nH]c2c1`, the IC50 was greater than 99.5 µM.
The same measure for `N#Cc1ccc2[nH]cc(CN3CCC(c4cscn4)CC3)c2c1`: greater than 99.5 µM; for `NCc1cccc(NC(=O)c2cc(Cl)cc(CNC(=O)OCc3ccccc3)c2)c1`: 84.3 µM.
The same measure for `NCc1cccc(C(=O)Nc2cc(Cl)cc(NC(=O)OCc3ccccc3)c2)c1`: 67.5 µM; for `c1ccc2c(CN3CC(c4cscn4)C3)c[nH]c2c1`: greater than 99.5 µM; for `NCc1cccc(NC(=O)c2ccc(OCC(F)(F)F)c(NC(=O)OCc3ccccc3)c2)c1`: greater than 99.5 µM.
The same measure for `c1cc(-c2cc(CN3CCC(c4cscn4)CC3)n[nH]2)ccn1`: greater than 99.5 µM; for `NCc1cccc(NC(=O)[C@@H](NC(=O)OCc2ccccc2)c2ccc(Br)c(Cl)c2)c1`: 9.1 µM and 8.4 µM.
`O=C(N[C@@H](C(=O)Nc1nc2c(s1)CNC2)c1ccc(OCc2ccccc2)cc1)OCc1ccccc1` displayed a concentration for half-maximal inhibition (IC50) greater than 99.5 µM.
In the case of `N#Cc1cccc2c(CN3CCC(c4cscn4)CC3)c[nH]c12` it was greater than 99.5 µM.
The same measure for `C1=C(c2cccnc2)CN(Cc2c[nH]c3ccccc23)CC1`: greater than 99.5 µM; for `O=C(O)c1cc(Cl)cc(NS(=O)(=O)c2ccc(-c3ccc(F)cc3)cc2)c1`: 90.6 µM; for `FC1(c2cccnc2)CN(Cc2c[nH]c3ccccc23)C1`: greater than 99.5 µM.
In the case of `O=C(Nc1cc(Cl)cc(C(=O)Nc2nc3c(s2)CNC3)c1)OCc1ccccc1` it was greater than 99.5 µM.
On to `CN1CCn2nc(NC(=O)[C@@H](NC(=O)OCc3ccccc3)c3ccc(OCc4ccccc4)cc3)cc2C1`, for which the concentration for half-maximal inhibition (IC50) was greater than 99.5 µM.
The same measure for `c1cncc([C@@H]2CN(Cc3c[nH]c4ccccc34)CCO2)c1`: greater than 99.5 µM; for `Cc1c(C(F)(F)F)n[nH]c1CN1CCC(c2cscn2)CC1`: greater than 99.5 µM; for `O=C1O[C@H]2CCN(Cc3ccc(OCc4ccccc4)cc3)C[C@H]12`: greater than 99.5 µM.
In the case of `Cc1[nH]c2ccccc2c1CN1CCC(c2c[nH]c3ncccc23)CC1` it was greater than 99.5 µM.
The same measure for `c1cnc2[nH]cc(C3CCN(Cc4c[nH]c5cnccc45)CC3)c2c1`: greater than 99.5 µM; for `O=C(N[C@@H](C(=O)Nc1ncc([C@H]2CCCN2)s1)c1ccc(OCc2ccccc2)cc1)OCc1ccccc1`: greater than 99.5 µM; for `NCc1cccc(S(=O)(=O)Cc2cc(Cl)cc(NC(=O)OCc3ccccc3)c2)c1`: greater than 99.5 µM.
Turning to `NCc1cccc(NC(=O)c2cc(N)cc(NC(=O)OCc3ccccc3)c2)c1`, the half-inhibitory concentration (IC50) is greater than 99.5 µM.
The same measure for `CN1CCc2nc(NC(=O)[C@@H](NC(=O)OCc3ccccc3)c3ccc(OCc4ccccc4)cc3)sc2C1`: greater than 99.5 µM; for `CN(Cc1cccnc1)Cc1c[nH]c2ccccc12`: greater than 99.5 µM.
In the case of `CCN1CC[C@@H](COc2ccc([C@@H](NC(=O)OCc3ccccc3)C(=O)Nc3cccc(CN)c3)cc2)C1` it was greater than 99.5 µM; in that of `Cn1nc(NC(=O)c2cc(Cl)cc(NC(=O)OCc3ccccc3)c2)c2c1CNC2`, 89.1 µM; in that of `c1ccc([C@H](NCc2c[nH]c3ccccc23)c2cccnc2)cc1`, greater than 99.5 µM.
In the case of `CC[C@@H](NCc1c[nH]c2ccccc12)c1cccnc1` it was greater than 99.5 µM.
As for `NC[C@@H]1CN(c2cc(N3CC[C@H](N)C3)cc3c2COB3O)C(=O)O1`, the IC50 is greater than 99.5 µM.
`O=C(O)c1cc(Cl)ccc1NS(=O)(=O)c1ccc(Nc2ccccc2F)nc1` returned an IC50 of 43.2 µM. That is a double-digit micromolar value.
In the case of `NCc1cccc(NC(=O)C[C@@H](NC(=O)OCc2ccccc2)c2ccc(Cl)c(Br)c2)c1` it was 12.4 µM and 12.2 µM; in that of `c1ccc([C@@H]2C[C@H]3C[C@@H]2C[C@H]3NCc2n[nH]c3ccccc23)cc1`, greater than 99.5 µM.
